Values joined by “and” are separate entries in the source; they are usually repeats but may differ in a detail not shown here. Equal values may be shown once.

Series [1] concerns human Caco-2 cells. As to the kind of experiment: In vitro test on human Caco-2 cells, cellular transport A to B. The series is classed as in vitro ADME. The conditions noted are these: prodrug incubated, 120 minutes; for Yield (experiment yield), the drug after incubation of the prodrug / Fabs (predicted absorbed fraction in humans), the drug after incubation of the prodrug: corresponding drug measured; for Fabs (predicted absorbed fraction in humans), the drug after incubation of the prodrug: 1 or 3 μM; for Yield (experiment yield), compound measured: the prodrug itself: total amount found at the end versus incubated. The method, then:
The cellular transport from A to B (Apical to Basolateral) of the phosphate compounds of formula (I) and the compounds of formula (I′) (corresponding drugs) is studied in human Caco-2 cells. Each compound is deposited apically at 1 or 3 μM (in duplicate) and then incubated for 120 minutes.
Several samples are taken during the experiment; • apically: immediately after deposition (t=0) and at 120 minutes • basolaterally: at the end of the experiment (120 minutes)
The concentrations of the phosphate compound (prodrug) and/or of its hydroxylated homologue (drug) are determined by liquid chromatography coupled with mass spectrometric detection (LC-MS/MS). The limit of quantification for both entities is 2 ng/mL.
The apparent permeability (Papp) and the predicted absorbed fraction (Fabs) in humans are calculated for the prodrug, for the drug after incubation of the prodrug and for the drug after incubation of the drug (Hubatsch et al, Nat Protoc. 2007; 2(9), 2111-2119).
The experiment yield, which corresponds to the ratio (in percent) of the total amount of compound found at the end of the experiment versus that incubated, is also calculated.

Series [2] concerns cleaved (activated) form of caspase 3. As to the kind of experiment: Quantification of the cleaved form of caspase 3 in vivo (MSD ELISA, RS4;11 xenograft tumour lysates). Also noted: species or system mice (SCID strain). Particulars: sampling time 2 hours, treated versus control mice. Here is the method: The ability of the compounds of formula (I′) to activate caspase 3 is evaluated in a xenograft model of RS4;11 leukaemia cells.
1×10^7 RS4;11 cells are grafted sub-cutaneously into immunosuppressed mice (SCID strain). 25 to 30 days after the graft, the animals are treated orally with the various compounds. After treatment, the tumour masses are recovered and lysed, and the cleaved (activated) form of caspase 3 is quantified in the tumour lysates.
The quantification is carried out using the “Meso Scale Discovery (MSD) ELISA platform” test, which specifically assays the cleaved form of caspase 3. It is expressed in the form of an activation factor corresponding to the ratio between the quantity of cleaved caspase 3 in the treated mice divided by the quantity of cleaved caspase 3 in the control mice.
The ability of the compounds of formula (I) to activate caspase 3 is evaluated in a xenograft model of RS4;11 leukaemia cells in accordance with the protocol given in Example A2.
In general terms: An ELISA detects its analyte on a solid surface through an enzyme-linked reagent.

The nature of series [3]: Solubility in aqueous medium buffered to physiological pH (phosphate 0.33M, pH 7.4). In kind it is physicochemical. Particulars: phosphate 0.33M, pH = 7.4. The method, then: (§1) The solubilities of the compounds were also measured in a medium buffered to physiological pH (cf. Table 3).
The nature of series [4]: Pharmacokinetic profile / in vivo conversion after oral administration to SCID mice (plasma, LC-MS/MS). Further details: species or system female SCID mice. Here is the method:
The pharmacokinetic profile of the phosphate compounds of formula (I) is evaluated in a lipid formulation and in aqueous solution in female SCID mice. This is compared to the pharmacokinetic profile of compounds of formula (I′) in a lipid formulation. More specifically, 4-[{[3-(6-{[(3S)-3-(morpholin-4-ylmethyl)-3,4-dihydroisoquinolin-2(1H)-yl]-carbonyl}-1,3-benzodioxol-5-yl)-5,6,7,8-tetrahydroindolizin-1-yl]carbonyl}(phenyl)-amino]phenyl disodium phosphate (also referred to as the compound of Example 1) was tested and compared to N-(4-hydroxyphenyl)-3-{6-[((3S)-3-(4-morpholinylmethyl)-3,4-dihydro-2(1H)-isoquinolinyl)carbonyl]-1,3-benzodioxol-5-yl}-N-phenyl-5,6,7,8-tetrahydro-1-indolizine carboxamide (also referred to as the drug from Example 1).
The compound of Example 1 is prepared in a mixture of anhydrous ethanol/polyethylene glycol 300/water (10/40/50, v/v/v) intended for administration by the p.o. route. The study is carried out in 2 groups of SCID mice to which the compound of Example 1 is administered under the following conditions: • Group 1: 3 mg/kg p.o. (gavage, 10 mL/kg), • Group 2: 25 mg/kg p.o. (gavage, 10 mL/kg).
Blood samples are taken at the following points in time (3 samples per animal and 3 animals for each point in time): 0.25 hr, 0.5 hr, 1 hr, 2 hrs, 6 hrs and 24 hrs after oral administration.
The compound of Example 1 is also administered by the oral route in an aqueous medium to SCID mice, under the following conditions: • Group 1: 30 mg/kg p.o. dissolved in 1 mM sodium carbonate solution (gavage, 10 mL/kg), • Group 2: 100 mg/kg p.o. in water (gavage, 10 mL/kg).
Blood samples are taken at the following points in time (3 animals for each point in time and 1 sample per animal): 0.25 hr, 0.5 hr, 1 hr, 2 hrs, 4 hrs, 6 hrs and 24 hrs after oral administration.
For all formulations of the compound of Example 1, the blood thereby collected is centrifuged and the plasma is transferred to tubes containing 1M hydrochloric acid. The plasma concentrations of the phosphate compound (prodrug) and its hydroxylated homologue (drug) are determined simultaneously using a method of liquid chromatography coupled with mass spectrometric detection (TFC-LC-MS/MS). The limit of detection for both entities is 0.5 ng/mL.
The drug from Example 1 is prepared in a mixture of anhydrous ethanol/polyethylene glycol 300/water (10/40/50, v/v/v) intended for administration by the p.o. route. The study is carried out in several groups of SCID mice to which the drug from Example 1 is administered under the following conditions: • Group 1: 3 mg/kg p.o. (gavage, 10 mL/kg), • Group 2: 30 mg/kg p.o. (gavage, 10 mL/kg), • Group 3: 25 mg/kg p.o. (gavage, 10 mL/kg), • Group 4: 100 mg/kg p.o. (gavage, 10 mL/kg).
Blood samples are taken at the following points in time (3 animals for each point in time and 3 samples per animal for Groups 1-2 and 1 sample per animal for Groups 3 and 4): • p.o.: before administration and then 0.25 hr, 0.5 hr, 0.75 hr, 1 hr, 2 hrs, 4 hrs, 6 hrs, 8 hrs, 16 hrs and 24 hrs after oral administration at 3 and 30 mg/kg, • p.o.: 0.5 hr, 2 hrs, 6 hrs, 16 hrs and 24 hrs after oral administration at 25 mg/kg and 0.5 hr, 1 hr, 2 hrs, 6 hrs, 16 hrs, 30 hrs and 48 hrs after oral administration at 100 mg/kg.
The plasma from the blood samples collected after administration of the lipid formulations of the drug from the compound of Example 1 are analysed by liquid chromatography coupled with mass spectrometric detection. The limit of quantification of the drug from the compound of Example 1 is less than or equal to 0.5 ng/mL.
Non-compartmental pharmacokinetic analysis is carried out on the mean values of the plasma concentrations of the compounds tested. […]

Series [5] in a line: Solubility in water. The series is classed as physicochemical. The method, then:
The solubility of compounds of formula (I) in water was measured and compared with that of compounds of formula (I′).
More specifically, 4-[{[3-(6-{[(3S)-3-(morpholin-4-ylmethyl)-3,4-dihydroisoquinolin-2(1H)-yl]carbonyl}-1,3-benzodioxol-5-yl)-5,6,7,8-tetrahydroindolizin-1-yl]carbonyl}-(phenyl)amino]phenyl disodium phosphate (also referred to as the compound of Example 1) was tested and compared to N-(4-hydroxyphenyl)-3-{6-[((3S)-3-(4-morpholinylmethyl)-3,4-dihydro-2(1H)-isoquinolinyl)carbonyl]-1,3-benzodioxol-5-yl}-N-phenyl-5,6,7,8-tetrahydro-1-indolizine carboxamide (also referred to as the drug from Example 1).
as §1

The mark [6] stands for this setting: Example 1 administered 3 mg/kg p.o., lipid formulation.
[7] abbreviates: Example 1 administered 25 mg/kg p.o., lipid formulation.
[8] abbreviates: Example 1 administered 30 mg/kg p.o., aqueous formulation (1 mM sodium carbonate solution).
Setting [9] is: Example 1 administered 100 mg/kg p.o., aqueous formulation (in water).

`O=C(c1cc(-c2cc3c(cc2C(=O)N2Cc4ccccc4C[C@H]2CN2CCOCC2)OCO3)n2c1CCCC2)N(c1ccccc1)c1ccc(OP(=O)([O-])[O-])cc1.[Na+].[Na+]` [Example 1, 4-[{[3-(6-{[(3S)-3-(Morpholin-4-ylmethyl)-3,4-dihydroisoquinolin-2(1H)-yl]carbonyl}-1,3-benzodioxol-5-yl)-5,6,7,8-tetrahydroindolizin-1-yl]carbonyl}(phenyl)amino]phenyl disodium phosphate]: in series [1], the “Yield (experiment yield), the drug after incubation of the prodrug” value was “Yield (%) = 42”. In addition, in series [1] (A to B), the “Fabs (predicted absorbed fraction in humans), the drug after incubation of the prodrug” value is “Fabs (%) = 71”. Moreover, in series [1] (A to B, deposited apically at 1 or 3 μM), the “Papp, compound measured: the prodrug itself” value is listed as “Papp (10^−6 cm/s) = 0.01”. Moreover, the “Yield (experiment yield), compound measured: the prodrug itself” value in series [1] is “Yield (%) = 0”. In addition, the “Activation factor +/− S.E.M.” value in series [2] (Table 2, 50 mg/kg oral) was 21.2 +/− 1.3. The “Solubility at 10 μM” value in series [3] (10 μM) is “Soluble”. Moreover, the “Solubility at 20 μM” value in series [3] (20 μM) was “Soluble”. For the same compound, the “Solubility at 50 μM” value in series [3] (50 μM) is given as “Soluble”. For the same compound, in series [3] (100 μM), the “Solubility at 100 μM” value was “Soluble”. The “AUCt, compound measured: Example 1” value in series [4] (setting [6]) is given as “AUCt (ng · h/mL) = 5”; in series [4] (setting [7]) it was “AUCt (ng · h/mL) = 92”; in series [4] (setting [8]) it was “AUCt (ng · h/mL) = 879”; in series [4] (setting [9]), “AUCt (ng · h/mL) = 797”. Besides, the “Tmax, compound measured: Example 1” value in series [4] (setting [6]) is recorded as “Tmax (h) = 0.25”; in series [4] (setting [7]), “Tmax (h) = 0.25”; in series [4] (setting [8]), “Tmax (h) = 1.0”; in series [4] (setting [9]), “Tmax (h) = 2.0”. In addition, the “Cmax, compound measured: Example 1” value is reported as “Cmax (ng/mL) = 16” in series [4] (Example 1 administered 3 mg/kg p.o., lipid formulation (ethanol/PEG 300/water 10/40/50)); “Cmax (ng/mL) = 244” in series [4] (setting [7]); “Cmax (ng/mL) = 391” in series [4] (setting [8]); “Cmax (ng/mL) = 359” in series [4] (setting [9]). Also, the solubility in water result in series [5] is “greater than or equal to 10 mg/mL and ≥ 12.6 mM”.

For the compound `Cc1c(C(=O)N(c2ccc(OP(=O)([O-])[O-])cc2)c2cnn(C)c2)cc(-c2cc(F)ccc2C(=O)N2Cc3ccccc3C[C@H]2CN2CCOCC2)n1C.[Na+].[Na+]` [Example 15, 4-[{[5-(5-Fluoro-2-{[(3S)-3-(morpholin-4-ylmethyl)-3,4-dihydroisoquinolin-2(1H)-yl]carbonyl}phenyl)-1,2-dimethyl-1H-pyrrol-3-yl]carbonyl}(1-methyl-1H-pyrazol-4-yl)amino]phenyl disodium phosphate], in series [2] (Table 2, 25 mg/kg oral), the “Activation factor +/− S.E.M.” value is given as 12.1 +/− 1.1.

Regarding `Cc1c(C(=O)N(c2ccc(OP(=O)([O-])[O-])cc2)c2cc(C#N)n(C)c2)cc(-c2cc(Cl)ccc2C(=O)N2Cc3ccccc3C[C@H]2CN2CCOCC2)n1C.[Na+].[Na+]` [Example 21, 4-[{[5-(5-Chloro-2-{[(3S)-3-(morpholin-4-ylmethyl)-3,4-dihydroisoquinolin-2(1H)-yl]carbonyl}phenyl)-1,2-dimethyl-1H-pyrrol-3-yl]carbonyl}(5-cyano-1-methyl-1H-pyrrol-3-yl)amino]phenyl disodium phosphate], in series [1], the “Yield (experiment yield), the drug after incubation of the prodrug” value is “Yield (%) = 100” and the “Yield (experiment yield), compound measured: the prodrug itself” value is listed as “Yield (%) = 0.83”. The “Fabs (predicted absorbed fraction in humans), the drug after incubation of the prodrug” value in series [1] (A to B) is reported as “Fabs (%) = 19”. The “Activation factor +/− S.E.M.” value in series [2] (Table 2, 25 mg/kg oral) is reported as 55.2 +/− 6.2.

Take `Cc1c(C(=O)N(c2ccc(OP(=O)([O-])[O-])cc2)c2cnn(C)c2)cc(-c2cc(Cl)ccc2C(=O)N2Cc3ccccc3C[C@H]2CN2CCOCC2)n1C.[Na+].[Na+]` [Example 24, 4-[{[5-(5-Chloro-2-{[(3S)-3-(morpholin-4-ylmethyl)-3,4-dihydroisoquinolin-2(1H)-yl]carbonyl}phenyl)-1,2-dimethyl-1H-pyrrol-3-yl]carbonyl}(1-methyl-1H-pyrazol-4-yl)amino]phenyl disodium phosphate]: the “Activation factor +/− S.E.M.” value in series [2] (Table 2, 25 mg/kg oral) was 60.5 +/− 4.5.

The record behind these values is patent publication US9115159B2, “Phosphate compounds, a process for their preparation and pharmaceutical compositions containing them” (LES LABORATOIRES SERVIER, priority 2013, dated 2015).
